From ChEMBL document CHEMBL1127323, “Isosteric phosphonate analogs of ET-16-OMe. Synthesis and biological evaluation of the enantiomers of 2'-(trimethylammonio)ethyl 4-(hexadecyloxy)-3-methoxybutanephosphonate and 2'-(trimethylammonio)ethyl 4-(hexadecylthio)-3-methoxybutanephosphonate” (J Med Chem, 1994)

Experiments:
[1] = system: L1210; experiment: Inhibitory activity against L1210 growth using clonogenic assay; type: functional, cell-based; conditions: Mus musculus
[2] = species: Mus musculus; experiment: Inhibitory activity against murine leukemia; type: functional, organism-based
[3] = system: P388; experiment: Inhibitory activity against adriamycin-sensitive and resistant cells in P388 and P388-ADR cells; type: functional, cell-based; conditions: Mus musculus

| IC50 [1] [nM] | IC50 [2] [nM] | IC50 [3] [nM] | Compound |
| --- | --- | --- | --- |
| 2500 | 1000 | 2500 | CCCCCCCCCCCCCCCCOC[C@H](CCP(=O)([O-])OCC[N+](C)(C)C)OC |
| – | 1000 | – | CCCCCCCCCCCCCCCCSC[C@H](CCP(=O)([O-])OCC[N+](C)(C)C)OC |
